Results reported in patent US20080176264A1, “Osteoclast Culture Vessels and Methods of Use” (priority 2004, published 2008).

Test system: primary human osteoclast precursors
Assay: In vitro bone resorption assay in OSTEOASSAY plate (CTx collagen resorption product in supernatant, EIA)
Format: cell-based
Conditions: supernatants assayed after an additional 2 days, M-CSF and soluble RANK ligand
Procedure: OSTEOASSAY™ plates, which contain adherent particles (≦0.125 mm dimension) of native human bone, were seeded with 10,000 primary human osteoclast precursors (“Poietics™ Osteoclast Precursors,” product no. 2T-110, Cambrex Corporation) per well in medium containing M-CSF+/−soluble RANK ligand and cultured at 37° C. for 5-7 days. Culture media were changed on day 5, 6 or 7 and the cultures were continued for another 1 to 3 days.
The release into the culture supernatants of collagen type I peptides from the bone particles was measured quantitatively by enzyme immunoassay (EIA). Three different commercially available assay kits for the measurement of resorption-specific collagen resorption fragments were evaluated: the METRA™ Helical Peptide EIA kit (Quidel), the Serum CROSSLAPS® ELISA (Nordic Bioscience) kit, and the OSTEOMARK® NTx (Ostex) kit. In some experiments, the OSTEOASSAY™ plate was compared to dentin discs (ALPCO Diagnostics). In other assays, primary human osteoclast precursors were exposed to inhibitors of osteoclast function (alendronate or calcitonin) for 48-72 hours and then assayed for bone resorptive activity.
Primary human osteoclast precursors were seeded at 10,000 cells/well and cultured in medium containing M-CSF and soluble RANK ligand. After 5 days of culture, the medium was renewed +/−1 nM calcitonin or +/−various concentrations of alendronate. […]

| Molecule | inhibition of in vitro bone resorption (CTx collagen resorption product) (1 nM calcitonin added after 5 days of culture, FIG. 3) | IC50 (Homo sapiens, Osteoclast, various concentrations added after 5 days of culture, FIG. 4, read-out: IC50 for inhibition of bone resorption (CTx collagen resorption product)) |
| --- | --- | --- |
| calcitonin | effectively inhibits in vitro bone resorption | – |
| NCCCC(O)(P(=O)(O)O)P(=O)(O)O [alendronate] | – | ~1000 nM |
